Laboratory results from ChEMBL document CHEMBL4196033, “Potent hydrazone derivatives targeting esophageal cancer cells” (Eur J Med Chem, 2018).
pIC50: −log10 of the molar value. Active and inactive are the calls of the source. The rule behind the calls is not given here.

How the values were obtained:
ECa-109 cell line [1] = experiment: Induction of apoptosis in human EC109 cells assessed as live cells at 8 uM after 48 hrs in presence of caspase inhibitor Z-VAD-FMK by Annexin V-FITC/propidium iodide staining based flow cytometry (reference value: 96.2%); format: functional
MGC-803 = experiment: Antiproliferative activity against human MGC803 cells after 72 hrs by MTT assay; format: functional, cell-based; conditions: MGC-803, 72 h
ECa-109 cell line [2] = experiment: Antiproliferative activity against human EC109 cells after 48 hrs by MTT assay; format: functional, cell-based; conditions: ECa-109, 48 h
EC9706 [3] = experiment: Induction of apoptosis in human EC9706 cells assessed as increase in cleaved caspase-9 protein expression after 48 hrs by Western blot analysis; format: functional, cell-based
ECa-109 cell line [4] = experiment: Induction of morphological changes in human EC109 cells assessed as cell rounding after 48 hrs by Hoechst 33342 staining based fluorescence microscopic method; format: functional
Mus musculus [5] = experiment: Acute toxicity in C57BL/6 mouse assessed as histopathological changes in heart at 2 g/kg, ig measured for 2 weeks by hematoxylin and eosin staining based microscopic method; format: organism-based; conditions: in vivo, po, 2000 mg/kg, 336 h
ECa-109 cell line [6] = experiment: Induction of apoptosis in human EC109 cells assessed as late apoptotic cells at 4 uM after 48 hrs by Annexin V-FITC/propidium iodide staining based flow cytometry (reference value: 0.2 to 1.74%); format: functional
EC9706 [7] = experiment: Induction of apoptosis in human EC9706 cells assessed as late apoptotic cells at 8 uM after 48 hrs in presence of caspase inhibitor Z-VAD-FMK by Annexin V-FITC/propidium iodide staining based flow cytometry (reference value: 1.27%); format: functional
EC9706 [8] = experiment: Induction of apoptosis in human EC9706 cells assessed as increase in p53 protein expression after 48 hrs by Western blot analysis; format: functional, cell-based
ECa-109 cell line [9] = experiment: Induction of apoptosis in human EC109 cells assessed as early apoptotic cells at 2 uM after 48 hrs by Annexin V-FITC/propidium iodide staining based flow cytometry (reference value: 0.43 to 1.15%); format: functional
EC9706 [10] = experiment: Anticlonogenic activity against human EC9706 cells after 7 days by crystal violet staining based assay; format: functional, cell-based
EC9706 [11] = experiment: Induction of apoptosis in human EC9706 cells at 2 to 4 uM after 48 hrs in presence of anti-oxidant NAC by Annexin V-FITC/propidium iodide staining based flow cytometry; format: functional, cell-based
EC9706 [12] = experiment: Induction of apoptosis in human EC9706 cells assessed as late apoptotic cells at 4 uM after 48 hrs by Annexin V-FITC/propidium iodide staining based flow cytometry (reference value: 1.29 to 1.99%); format: functional
ECa-109 cell line [13] = experiment: Induction of apoptosis in human EC109 cells at 2 to 4 uM after 48 hrs in presence of anti-oxidant NAC by Annexin V-FITC/propidium iodide staining based flow cytometry; format: functional, cell-based
ECa-109 cell line [14] = experiment: Induction of apoptosis in human EC109 cells assessed as increase in cleaved caspase-8 protein expression after 48 hrs by Western blot analysis; format: functional, cell-based
ECa-109 cell line [15] = experiment: Induction of apoptosis in human EC109 cells assessed as early apoptotic cells at 8 uM after 48 hrs in presence of caspase inhibitor Z-VAD-FMK by Annexin V-FITC/propidium iodide staining based flow cytometry (reference value: 0.52%); format: functional
ECa-109 cell line [16] = experiment: Induction of apoptosis in human EC109 cells after 48 hrs by Annexin V-FITC/propidium iodide staining based flow cytometry; format: functional, cell-based
ECa-109 cell line [17] = experiment: Effect on Prxs-1 protein expression in human EC109 cells at 2 to 8 uM after 48 hrs by Western blot analysis; format: functional, cell-based
EC9706 [18] = experiment: Cell cycle arrest in human EC9706 cells assessed as decrease in G2/M phase population at 4 uM after 24 hrs by propidium iodide staining based flow cytometry relative to control; format: functional
ECa-109 cell line [19] = experiment: Effect on Prxs-5 protein expression in human EC109 cells at 2 to 8 uM after 48 hrs by Western blot analysis; format: functional, cell-based
EC9706 [20] = experiment: Cell cycle arrest in human EC9706 cells assessed as increase in G0/G1 phase population at 2 uM after 24 hrs by propidium iodide staining based flow cytometry relative to control; format: functional
GES1 = experiment: Antiproliferative activity against human GES-1 cells after 24 hrs by MTT assay; format: cell-based; conditions: GES1, 24 h
ECa-109 cell line [21] = experiment: Effect on Prxs-2 protein expression in human EC109 cells at 2 to 8 uM after 48 hrs by Western blot analysis; format: functional, cell-based
EC9706 [22] = experiment: Induction of apoptosis in human EC9706 cells assessed as increase in Bax protein expression after 48 hrs by Western blot analysis; format: functional, cell-based
Mus musculus [23] = experiment: Acute toxicity in C57BL/6 mouse assessed as histopathological changes in spleen at 2 g/kg, ig measured for 2 weeks by hematoxylin and eosin staining based microscopic method; format: organism-based; conditions: in vivo, po, 2000 mg/kg, 336 h
ECa-109 cell line [24] = experiment: Induction of apoptosis in human EC109 cells assessed as decrease in Bid protein expression at 2 to 8 uM after 48 hrs by Western blot analysis; format: functional, cell-based
EC9706 [25] = experiment: Induction of apoptosis in human EC9706 cells assessed as live cells at 4 uM after 48 hrs by Annexin V-FITC/propidium iodide staining based flow cytometry (reference value: 85.5 to 96%); format: functional
EC9706 [26] = experiment: Cell cycle arrest in human EC9706 cells assessed as decrease in G2/M phase population at 2 uM after 24 hrs by propidium iodide staining based flow cytometry relative to control; format: functional
EC9706 [27] = experiment: Induction of apoptosis in human EC9706 cells assessed as increase in cleaved caspase-3 protein expression after 48 hrs by Western blot analysis; format: functional, cell-based
ECa-109 cell line [28] = experiment: Induction of apoptosis in human EC109 cells assessed as increase in cleaved PARP protein expression after 48 hrs by Western blot analysis; format: functional, cell-based
ECa-109 cell line [29] = experiment: Induction of apoptosis in human EC109 cells assessed as necrotic cells at 4 uM after 48 hrs by Annexin V-FITC/propidium iodide staining based flow cytometry (reference value: 0.74 to 1.18%); format: functional
ECa-109 cell line [30] = experiment: Induction of apoptosis in human EC109 cells assessed as increase in p53 protein expression after 48 hrs by Western blot analysis; format: functional, cell-based
EC9706 [31] = experiment: Induction of apoptosis in human EC9706 cells assessed as late apoptotic cells at 8 uM after 48 hrs by Annexin V-FITC/propidium iodide staining based flow cytometry (reference value: 1.29 to 1.99%); format: functional
EC9706 [32] = experiment: Upregulation of p27 protein expression in human EC9706 cells at 8 uM after 24 to 48 hrs by Western blot analysis relative to control; format: functional
EC9706 [33] = experiment: Upregulation of p27 protein expression in human EC9706 cells at 2 uM after 24 to 48 hrs by Western blot analysis relative to control; format: functional
Mus musculus [34] = experiment: Acute toxicity in C57BL/6 mouse assessed as histopathological changes in kidney at 2 g/kg, ig measured for 2 weeks by hematoxylin and eosin staining based microscopic method; format: organism-based; conditions: in vivo, po, 2000 mg/kg, 336 h
ECa-109 cell line [35] = experiment: Induction of apoptosis in human EC109 cells assessed as necrotic cells at 4 uM after 48 hrs in presence of caspase inhibitor Z-VAD-FMK by Annexin V-FITC/propidium iodide staining based flow cytometry (reference value: 2.37%); format: functional
PC-3 = experiment: Antiproliferative activity against human PC3 cells after 72 hrs by MTT assay; format: functional, cell-based; conditions: PC-3, 72 h

COc1ccc(/C=N/NC(=O)c2cccc(S(=O)(=O)N3CCOCC3)c2)c(O)c1
Activity (ECa-109 cell line [1]): 26.9% | pIC50 (MGC-803): 5.68 | pIC50 (ECa-109 cell line [2]): 4.95 | Activity (EC9706 [3]): Dose-dependent effect | Activity (ECa-109 cell line [4]): Dose-dependent effect | Activity (Mus musculus [5]): Non-Toxic | Activity (ECa-109 cell line [6]): 17.4 - 31.1% | Activity (EC9706 [7]): 25% | Activity (EC9706 [8]): Dose-dependent effect | Activity (ECa-109 cell line [9]): 13.3% | Activity (EC9706 [10]): Active | Activity (EC9706 [11]): inactive | Activity (EC9706 [12]): 18.2 - 21.6% | Activity (ECa-109 cell line [13]): inactive | Activity (ECa-109 cell line [14]): Dose-dependent effect | Activity (ECa-109 cell line [15]): 14.1% | Activity (ECa-109 cell line [16]): Dose-dependent effect | Activity (ECa-109 cell line [17]): Active | fold change (FC) (EC9706 [18]): 0.3 | Activity (ECa-109 cell line [19]): Active | fold change (FC) (EC9706 [20]): 1.07 | pIC50 (GES1): < 4.10 | Activity (ECa-109 cell line [21]): Active | Activity (EC9706 [22]): Dose-dependent effect | Activity (Mus musculus [23]): Non-Toxic | Activity (ECa-109 cell line [24]): Active | Activity (EC9706 [25]): 34.2 - 61.2% | fold change (FC) (EC9706 [26]): 0.28 | Activity (EC9706 [27]): Dose-dependent effect | Activity (ECa-109 cell line [28]): Dose-dependent effect | Activity (ECa-109 cell line [29]): 4.45 - 11.3% | Activity (ECa-109 cell line [30]): Dose-dependent effect | Activity (EC9706 [31]): 25 - 33.1% | fold change (FC) (EC9706 [32]): 1.7 | fold change (FC) (EC9706 [33]): 1.3 | Activity (Mus musculus [34]): Non-Toxic | Activity (ECa-109 cell line [35]): 20.4% | pIC50 (PC-3): 5.24
